{
  "source": "patent US20020012943A1",
  "about": "“ELECTROCHEMICAL PROBES FOR DETECTION OF MOLECULAR INTERACTIONS AND DRUG DISCOVERY” (priority 1997, published 2002)",
  "key": {"MDM2": {"target": "MDM2 (Homo sapiens, UniProt Q00987)", "sequence (Q00987 whole entry, species assumed)": "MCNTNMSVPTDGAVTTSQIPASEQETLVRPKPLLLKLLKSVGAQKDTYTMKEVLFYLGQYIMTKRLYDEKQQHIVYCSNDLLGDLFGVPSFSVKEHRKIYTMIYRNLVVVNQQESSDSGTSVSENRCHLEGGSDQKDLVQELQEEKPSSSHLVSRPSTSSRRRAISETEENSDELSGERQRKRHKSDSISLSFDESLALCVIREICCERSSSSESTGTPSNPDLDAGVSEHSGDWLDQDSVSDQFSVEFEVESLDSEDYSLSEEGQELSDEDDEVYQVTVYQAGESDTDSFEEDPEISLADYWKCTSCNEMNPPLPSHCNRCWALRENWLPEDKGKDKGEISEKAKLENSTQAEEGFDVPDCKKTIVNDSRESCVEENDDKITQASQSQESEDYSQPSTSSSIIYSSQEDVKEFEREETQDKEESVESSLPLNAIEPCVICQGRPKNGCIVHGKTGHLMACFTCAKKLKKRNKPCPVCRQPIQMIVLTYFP", "test": "Cyclic voltammetry of electrochemically-labeled peptide binding to an MDM2 coated electrode", "conditions": "electrochemically-labeled peptide plus mediator; described in present tense", "experimental": "(§1) Protein crosslinking to the prepared electrode was then performed as follows. A 50 μL aliquot of a 5 mM solution of 1-(3-dimethylaminopropyl)-3-ethylcarbodiimide was placed on one side of the electrode and dried at room temperature. […] of a 4 mg/mL solution of a fusion protein in phosphate buffered saline (PBS)/0.1% Tween 20 was placed on the surface of the dried electrode previously treated with carbodiimide and incubated at 4° C. overnight to allow crosslinking to proceed. After this incubation, electrodes were washed once with a solution of 100 mM Tris-HCl (pH8.0)/100 mM NaCl for 5 min. and kept in PBS at 4° C. until used.\nCyclic voltammograms were collected using an EG&G PAR 273A potentiostat/galvanostat with a single compartment voltammetric cell equipped with a modified tin-doped indium oxide (ITO) working electrode (area=0.32 cm^2), platinum (Pt)-wire counter electrode and silver/silver chloride (Ag/AgCl) reference electrode (see Johnston et al, 1994, Inorg. Chem. 33: 6388-6390). An example of such a voltammogram is shown in FIG. 7 and was generated under the following conditions. A sample containing 50 mM Ru(NH3)6^3+ and 20 mM Ru(NH3)5^3+-labeled peptide dissolved in buffered aqueous solutions containing 50 mM sodium phosphate buffer (pH 6.8)/700 mM NaCl (having a total sodium ion concentration of 780 mM) was scanned at a rate of 15 mV/s. […]"}, "[1]": {"target": "T1, GST-Src SH3 fusion protein (Homo sapiens, UniProt P12931)", "T1 construct": "made in house", "test": "Cyclic voltammetry of electrochemically-labeled peptide binding to a GST-Src SH3 coated electrode", "conditions": "for specific cyclic voltammetry signal at GST-Src SH3 electrode: electrochemically-labeled peptide plus mediator, described in present tense", "experimental": "Tin-doped indium oxide electrodes were purchased (Delta Technologies) as 2 cm^2 square glass slides and prepared for use as follows. The electrode was cleaned by sonication treatment in a laboratory sonicator by sequential treatment in Alkonox, neat isopropyl alcohol, distilled and deionized water (three times), and finally the desired buffer; each sonication treatment having been performed for 10 min. The cleaned electrodes were then immersed in a 5 mM solution of 1,12-dodecadicarboxylic acid and incubated at room temperature for 48-72 hours, followed by rinsing the electrodes with hexane (Analytical grade).\nas §1\n(§2) Cyclic voltammograms were collected using an EG&G PAR 273A potentiostat/galvanostat with a single compartment voltammetric cell equipped with a modified tin-doped indium oxide (ITO) working electrode (area=0.32 cm^2), platinum (Pt)-wire counter electrode and silver/silver chloride (Ag/AgCl) reference electrode (see Johnston et al, 1994, Inorg. Chem. 33: 6388-6390). An example of such a voltammogram is shown in FIG. 7 and was generated under the following conditions. A sample containing 50 mM Ru(NH3)6^3+ and 20 mM Ru(NH3)5^3+-labeled peptide dissolved in buffered aqueous solutions containing 50 mM sodium phosphate buffer (pH 6.8)/700 mM NaCl (having a total sodium ion concentration of 780 mM) was scanned at a rate of 15 mV/s. After scans with the electrochemically labeled peptide, the electrode was rinsed with the same 50 mM sodium phosphate buffer solution, and then with 50 mM Ru(NH3)6^3+ or an unlabeled peptide solution containing 50 mM Ru(NH3)6^3+. Cyclic voltammograms were obtained with 50 mM Ru(NH3)6^3+ after washing. […] A freshly prepared electrode was used for each experiment and a background scan of buffer alone was collected for each electrode and subtracted from subsequent scans.\nThe electrochemical analysis apparatus and methods of the invention were used to detect and analyze the specific binding interaction between the Src SH3 domain and a specific binding SH3 peptide as follows. […]"}, "streptavidin": {"target": "streptavidin (Streptomyces avidinii, UniProt P22629)", "sequence (P22629 25-183)": "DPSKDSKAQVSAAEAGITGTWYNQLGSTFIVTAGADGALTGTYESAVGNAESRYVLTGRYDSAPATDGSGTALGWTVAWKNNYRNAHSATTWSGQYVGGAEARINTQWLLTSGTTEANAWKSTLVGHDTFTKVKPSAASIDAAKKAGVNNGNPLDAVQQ", "test": "Cyclic voltammetry of electrochemically-labeled peptide binding to a streptavidin coated electrode", "conditions": "electrochemically-labeled peptide plus mediator; described in present tense", "experimental": "as §1, §2\nElectrodes are prepared by coating with the GST-Src SH3 fusion protein described above or with streptavidin using the procedures described in Example 2. […]"}, "src SH3 domain": {"target": "T2, src SH3 domain (Homo sapiens, UniProt P12931)", "T2 construct": "The src SH3 domain was immobilized in a hydrogel as described above in Section A", "test": "Chronoamperometry of SA/B-HRP conjugated surrogate ligand binding to a src SH3 hydrogel electrode", "conditions": "100 mV", "experimental": "The electrochemical analytic methods and apparati of the invention are used to detect protein:peptide interactions in a complex mixture. A variety of different target molecules and purchased from Polysciences (Warrington, Pa.). The redox polymer poly(1-vinylimidazole), modified with Os bipyridine redox centers (PVI-Os) was synthesized as described by Ohara et al. (1993, Anal. Chem. 65: 3512-3517). Specifically, hydrogels were prepared by mixing together 5 μL of each of the following solutions: a solution of a first member of a biological binding pair, typically comprising a receptor protein or fragment at a concentration of 4-6 mg/mL protein; 10 mg/mL PVI-Os, and 2.5 mg/mL PEGDGE. A 1 μL aliquot of the mixture was then spread on the surface of the glassy carbon electrodes. The hydrogel coated electrodes were cured overnight at room temperature prior to use.\nThe src SH3 domain was immobilized in a hydrogel as described above in Section A. This electrode was then used for electrochemical detection of surrogate ligand binding using a surrogate ligand prepared as follows.\nA complex of streptavidin (SA) (Sigma Chemical Co., St. Louis, Mo.), biotinylated horseradish peroxidase (B-HRP) (Sigma) and biotinylated src SH3 surrogate ligand (His-Gly-Ser-Gly-Ser-Phe-Ser-His-Pro-Gln-Asn-Thr; SEQ ID No. 2) was prepared as follows. […]"}, "[2]": {"tested_on": "Tyrosine aminoacyl tRNA synthetase (tyrRS)", "test": "Chronoamperometry of SA/B-HRP conjugated surrogate ligand binding to, and inhibitor displacement from, a tyrRS hydrogel electrode"}},
  "note": "Where no end group is shown, it is not given here. The star is where a group is joined. Biotin = O=C1N[C@H]2[C@H](CS[C@H]2CCCCC(=O)*)N1",
  "data": [
    {"substance": "Biotin-HHSGSGSQTFSDLWKL [p53 peptide]", "values": [
      {"measurement": "specific cyclic voltammetry signal at MDM2 electrode", "setting": "MDM2", "value": "Specific signals are detected"},
      {"measurement": "specific cyclic voltammetry signal at GST-Src SH3 electrode", "setting": "[1]", "value": "No specific interaction is detected"},
      {"measurement": "specific cyclic voltammetry signal at streptavidin electrode", "setting": "streptavidin", "value": "No specific interaction is detected"}
    ]},
    {"substance": "Gly-His-Gly-Ser-Gly-Arg-Ala-Leu-Pro-Pro-Leu-Pro-Arg-Tyr-NH2 (GHGSGRALPPLPRY-NH2) [NPDF-1]", "values": [
      {"measurement": "integrated cyclic voltammetry signal, mediator background subtracted", "setting": "[1]; GST-Src SH3 coated electrode compared with GST alone, Ru-labeled peptide, hexaamineruthenium(III) mediator, 2 hours incubation", "value": "much higher signal"},
      {"measurement": "specific cyclic voltammetry signal at GST-Src SH3 electrode", "setting": "[1]", "value": "Specific signals are detected"},
      {"measurement": "specific cyclic voltammetry signal at streptavidin electrode", "setting": "streptavidin", "value": "no specific signal is detected"}
    ]},
    {"substance": "HGSGSFSHPQNT [src SH3 surrogate ligand]", "values": [
      {"measurement": "time at which current reaches plateau", "setting": "src SH3 domain; 100 μM H2O2, ligand added at t=600 sec (FIG. 8)", "value": "1500 to 2000", "unit": "s"},
      {"measurement": "current upon addition of SA/B-HRP conjugated surrogate ligand", "setting": "src SH3 domain; 100 μM H2O2, ligand added at t=600 sec to 1 μg/mL SA (FIG. 8)", "value": "an increase in current was detected"}
    ]},
    {"substance": "HGSGSFSHPQNT [streptavidin binding peptide]", "values": [
      {"measurement": "specific cyclic voltammetry signal at GST-Src SH3 electrode", "setting": "[1]", "value": "no specific signal is detected"},
      {"measurement": "specific cyclic voltammetry signal at streptavidin electrode", "setting": "streptavidin", "value": "Specific signals are detected"}
    ]},
    {"substance": "LYSWPDEQYERPSGSGK [tyrRS surrogate ligand]", "values": [
      {"measurement": "binding rate constant (first order) for the tyrRS-surrogate ligand binding reaction", "setting": "[2]; from the single-exponential current rise of FIG. 9", "value": 0.0012, "unit": "s⁻¹"},
      {"measurement": "current upon addition of SA/B-HRP conjugated surrogate ligand", "setting": "[2]; tyrRS hydrogel electrode, conditions as for src SH3 (FIG. 9)", "value": "current was detected"}
    ]}
  ]
}
